We go through seven compounds from patent US9403850B2, “Beta-lactamase inhibitors” (priority 2013, dated 2016).

Experiment [1] addresses T1, VIM-2 (Escherichia coli, UniProt Q5U7L7).
T1 construct: made in house; host or cells: E. coli BL21(DE3)
In words: β-Lactamase enzyme inhibition assay, VIM-2 (nitrocefin substrate). Type of experiment: biochemical. The note with it: nitrocefin substrate 100 μM, 15 min preincubation at 37° C.; read-out: IC50, Class B VIM-2. Here is the method:
For Vim-2 metallo β-lactamase, the procedure was identical with the following exceptions, first the protein was not pH adjusted to pH 5 with 50 mM sodium acetate, second, the chromatography step was changed to a 5 ml Q sepharose anion exchange column pre-equilibrated with 50 mM Hepes pH 7.5, and elution of the protein was achieved by a linear gradient of NaCl (0-600 mM). Finally, the VIM-2 purification required a second run (3rd step) on the Q sepharose anion exchange column to achieve acceptable purity (>90%).
An equal volume of diluted enzyme stock was added, and the plates were incubated at 37° C. for 15 min. Nitrocefin was used as substrate for p99 AmpC, VIM-2 and OXA-1 and dispensed into each well at a final concentration of 100 μM. Absorbance at 486 nm was immediately monitored for 10 min using a Biotek Powerwave XS2 microplate spectrophotometer using the GEN5 softweare package (Biotek Instruments, Winooski Vt.). In an analogous fashion, imipenem was used as substrate for Kpc-2 and Cefotaxime was used for SHV-5, while changes in absorbance upon hydrolysis of the β-lactam ring were monitored at 300 nm and 260 nm respectively in UV-transparent 96-well microtiter assay plates. Maximum rates of hydrolysis were compared to those in control wells (without inhibitors), and percentages of enzyme inhibition were calculated for each concentration of inhibitor. The concentration of inhibitor needed to reduce the initial rate of hydrolysis of substrate by 50% (IC50) was calculated as the residual activity of β-lactamase at 486 nm using GraFit version 7 kinetics software package (Erithacus Software, Surrey, UK).
Using the methodology described above, examples of the current invention were evaluated for their ability to inhibit β-lactamase enzymes from all four Ambler classifications (A through D). […] NT=Not tested.

Experiment [2] relates to E. coli ESBL4 expressing CTX-M-15. The experiment in a line: Broth microdilution MIC assay, partner ceftazidime.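 Further: ceftazidime held fixed at 4 µg/mL.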 It counts as cell-based. The note with it: Escherichia coli, read-out: MIC of Exemplary Compounds in presence of fixed β-lactams, Fixed CAZ, E. coli ESBL4 CTX-M-15. A general note: Broth dilution looks for growth in wells or tubes with falling amounts of substance.

In experiment [3] the test system is E. cloacae 144200 expressing Class C P99 AmpC. In words: Broth microdilution MIC assay, partner ceftazidime.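 Further: ceftazidime held fixed at 4 µg/mL.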 It counts as cell-based. The settings on record: Enterobacter cloacae, read-out: MIC of Exemplary Compounds in presence of fixed β-lactams, Fixed CAZ, E. cl. 144200 p99 AmpC.
The test system of experiment [4] is K. pneumoniae 156319 expressing KPC-3. In words: Broth microdilution MIC assay, partner meropenem. Type of experiment: cell-based. The note with it: Klebsiella pneumoniae, read-out: MIC of Exemplary Compounds in presence of fixed β-lactams, Fixed Mero, K.P. 156319 KPC-3.
Experiment [5] concerns P. aeruginosa Ps296 expressing VIM-2. In words: Broth microdilution MIC assay, partner meropenem. It counts as cell-based. The settings on record: Pseudomonas aeruginosa, read-out: MIC of Exemplary Compounds in presence of fixed β-lactams, Fixed Mero, P. aerug. Ps296 VIM-2.
Experiment [6] concerns K. pneumoniae A-1797 expressing KPC-2 and VIM-4. In words: Broth microdilution MIC assay, partner meropenem. The note with it: Klebsiella pneumoniae, read-out: MIC of Exemplary Compounds in presence of fixed β-lactams, Fixed Mero, K.P. A-1797 KPC-2 VIM-4. It counts as cell-based.
Experiment [7] concerns S. aureus MSSA-7 producing penicillinase PC-1. In words: Broth microdilution MIC assay, partner piperacillin. It counts as cell-based. The settings on record: Staphylococcus aureus, fixed piperacillin 4 μg/mL, read-out: MIC of Exemplary Compounds in presence of fixed β-lactams, Fixed Pip, S. aureus MSSA-7 PC-1.

What is called IC50 is the concentration at which inhibition is half-maximal. In general, MIC refers to the least concentration at which growth counts as inhibited. For `NCc1ccc(C(=O)N[C@H]2Cc3cccc(C(=O)O)c3OB2O)cc1CN` [Example 14, (R)-3-(3,4-bis(aminomethyl)benzamido)-2-hydroxy-3,4-dihydro-2H-benzo[e][1,2]oxaborinine-8-carboxylic acid], the 50% inhibitory concentration (IC50) in experiment [1] was < 100 nM. The MIC in experiment [2], in experiment [3], in experiment [4], in experiment [5], in experiment [6] and in experiment [7] was < 4 µg/mL each time.
Consider `O=C(Cc1ccc2cc[nH]c2c1)N[C@H]1Cc2cccc(C(=O)O)c2OB1O` [Example 46, (R)-2-Hydroxy-3-(2-1H-indol-6-yl-acetylamino)-3,4-dihydro-2H-benzo[e][1,2]oxaborinine-8-carboxylic acid], for which, in experiment [1], the IC50 was < 100 nM. Moreover, the MIC was < 4 µg/mL in experiment [2]; < 4 µg/mL in experiment [3]; < 4 µg/mL in experiment [4]; < 4 µg/mL in experiment [5]; < 4 µg/mL in experiment [6]; 8 to 32 µg/mL in experiment [7].
For `O=C(N[C@H]1Cc2cccc(C(=O)O)c2OB1O)c1ccc2c(c1)CNC2` [Example 9, (R)-2-hydroxy-3-(isoindoline-5-carboxamido)-3,4-dihydro-2H-benzo[e][1,2]oxaborinine-8-carboxylic acid], in experiment [1], the IC50 is < 100 nM. Further, the MIC in experiment [2], in experiment [3], in experiment [4], in experiment [5], in experiment [6] and in experiment [7] was < 4 µg/mL in each case.
Consider `NCCN1Cc2ccc(CC(=O)N[C@H]3Cc4cccc(C(=O)O)c4OB3O)cc2C1` [Example 49, (R)-3-{2-[2-(2-Amino-ethyl)-2,3-dihydro-1H-isoindol-5-yl]-acetylamino}-2-hydroxy-3,4-dihydro-2H-benzo[e][1,2]oxaborinine-8-carboxylic acid], for which, in experiment [1], the IC50 is 100 to 1000 nM. Besides, the MIC in experiment [2] is < 4 µg/mL; in experiment [3], < 4 µg/mL; in experiment [4] it was < 4 µg/mL; in experiment [5] it was < 4 µg/mL; in experiment [6], > 32 µg/mL; in experiment [7], < 4 µg/mL.
`O=C(O)c1ccccc1C(=O)N[C@H]1Cc2cccc(C(=O)O)c2OB1O` [Example 53, (R)-3-(2-carboxybenzamido)-2-hydroxy-3,4-dihydro-2H-benzo[e][1,2]oxaborinine-8-carboxylic acid]: the IC50 in experiment [1] was 1000 to 10000 nM. The MIC was < 4 µg/mL in experiment [2]; < 4 µg/mL in experiment [3]; < 4 µg/mL in experiment [4]; > 32 µg/mL in experiment [5]; 8 to 32 µg/mL in experiment [6]; < 4 µg/mL in experiment [7].
For `CN(C)Cc1ccc(C(=O)N[C@H]2Cc3cccc(C(=O)O)c3OB2O)cc1N` [Example 18, (R)-3-(3-amino-4-((dimethylamino)methyl)benzamido)-2-hydroxy-3,4-dihydro-2H-benzo[e][1,2]oxaborinine-8-carboxylic acid], the IC50 in experiment [1] lay in the range of 100 to 1000 nM. The MIC in experiment [2], in experiment [3], in experiment [4], in experiment [5], in experiment [6] and in experiment [7] was < 4 µg/mL each time.
On to `CC(C)NCc1cc(C(=O)N[C@H]2Cc3cccc(C(=O)O)c3OB2O)ccc1CN` [Example 55, (R)-3-(4-(aminomethyl)-3-((isopropylamino)methyl)benzamido)-2-hydroxy-3,4-dihydro-2H-benzo[e][1,2]oxaborinine-8-carboxylic acid], for which the IC50 in experiment [1] was 100 to 1000 nM. Besides, the MIC in experiment [2] was < 4 µg/mL; in experiment [3], < 4 µg/mL; in experiment [4], 8 to 32 µg/mL; in experiment [5], < 4 µg/mL; in experiment [6], > 32 µg/mL; in experiment [7] it was > 32 µg/mL.
